This is an account of results in patent publication US10639305B2, “Liquid preparation comprising pimobendan” (Boehringer Ingelheim Vetmedica GmbH, priority 2006, dated 2020).

Data set [1] is described as follows: Saturated solubility of pimobendan at 10 to 40% (w/v) HPβCD at pH 3, 5 and 7. It is filed as physicochemical. The conditions noted are these: HPβCD 10 to 40% (w/v), pH 3, 5, 7, 25° C. The method, then: Kleptose® HP (Roquette, France) was used as HPβCD of pharmaceutical grade. […] The solutions were buffered with a sodium phosphate solution. The sample solutions were prepared using the following method: • a) Approximately 3 ml of the solution under test was placed in a 7 ml glass vial with a magnetic stirring bar. • b) The pH was adjusted with hydrochloric acid • c) An excess of pimobendan was added.

A short description of the next data set: physchem. It is filed as physicochemical. The method, then:
Saturated solubility of pimobendan was investigated at 20 to 25% (w/v) of HPβCD in 10 mM phosphate buffer pH 7.0. The study was carried out on three different batches of HPβCD and each solution tested in duplicate (see FIG. 3). The solutions were prepared using the following method: • a) Approximately 3 ml of the solution under test was placed in a 7 ml glass vial with a magnetic stirring bar. • b) An excess of pimobendan was added. The sample was placed in an ultrasonic bath and sonicated for 5 min. to ensure an excess of pimobendan was present and more added if required. • c) The samples were placed in a water bath at 25° C. and stirred for at least 16 hours. • d) The samples were filtered using 0.2 μm PVDF syringe filter. • e) The samples were assayed by HPLC.
An isotonic solution was required for the formulation. […] Sodium chloride was added to increase the osmolality to 303 mOsm/Kg. Saturated solubility of pimobendan 0.75 mg/ml at 24% (w/v) HPβCD were investigated and results were compared with those formulations that were not supplemented with sodium chloride.

The conditions of data set [2]: cited from earlier work.

In brackets after ≈: the same amount, converted by molar mass.

With `COc1ccc(-c2nc3ccc(C4=NNC(=O)CC4C)cc3[nH]2)cc1` (stereo not shown) [pimobendan, 4,5-dihydro-6-[2-(4-methoxyphenyl)-1H-benzimidazol-5-yl]-5-methyl-3(2H)-pyridazinone], the solubility (usually the concentration that dissolves in the medium under given conditions) at a certain HPβCD concentration, compared between pH values in data set [1] is reported as “lower at pH 7 than at pH 3, but higher than at pH 5”. Further, the solubility in the data set “physchem” (25 °C, pH 7, aqueous with cosolvent or surfactant or cyclodextrin, thermodynamic from solid, saturated solubility (amount of soluble pimobendan)) was ~1230 µg/mL (≈ 3.68 mM). For the same compound, the “saturated solubility (amount of soluble pimobendan)” value in the data set “physchem” (pH 7) is “about 0.71 mg/ml”. Also, the “solubility at pH 7” value in data set [2] is listed as “about 0.1 mg per 100 ml”.
